Active and inactive are the calls of the source.
What was measured:
[1] = biological target: T1, Sentrin-specific protease 6 (Homo sapiens, UniProt Q9GZR1); format: functional;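 further: Luminescence-based dose-response confirmatory assay of SENP6 inhibition, following up an ultra-high-throughput screen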
T1 sequence (Q9GZR1 whole entry): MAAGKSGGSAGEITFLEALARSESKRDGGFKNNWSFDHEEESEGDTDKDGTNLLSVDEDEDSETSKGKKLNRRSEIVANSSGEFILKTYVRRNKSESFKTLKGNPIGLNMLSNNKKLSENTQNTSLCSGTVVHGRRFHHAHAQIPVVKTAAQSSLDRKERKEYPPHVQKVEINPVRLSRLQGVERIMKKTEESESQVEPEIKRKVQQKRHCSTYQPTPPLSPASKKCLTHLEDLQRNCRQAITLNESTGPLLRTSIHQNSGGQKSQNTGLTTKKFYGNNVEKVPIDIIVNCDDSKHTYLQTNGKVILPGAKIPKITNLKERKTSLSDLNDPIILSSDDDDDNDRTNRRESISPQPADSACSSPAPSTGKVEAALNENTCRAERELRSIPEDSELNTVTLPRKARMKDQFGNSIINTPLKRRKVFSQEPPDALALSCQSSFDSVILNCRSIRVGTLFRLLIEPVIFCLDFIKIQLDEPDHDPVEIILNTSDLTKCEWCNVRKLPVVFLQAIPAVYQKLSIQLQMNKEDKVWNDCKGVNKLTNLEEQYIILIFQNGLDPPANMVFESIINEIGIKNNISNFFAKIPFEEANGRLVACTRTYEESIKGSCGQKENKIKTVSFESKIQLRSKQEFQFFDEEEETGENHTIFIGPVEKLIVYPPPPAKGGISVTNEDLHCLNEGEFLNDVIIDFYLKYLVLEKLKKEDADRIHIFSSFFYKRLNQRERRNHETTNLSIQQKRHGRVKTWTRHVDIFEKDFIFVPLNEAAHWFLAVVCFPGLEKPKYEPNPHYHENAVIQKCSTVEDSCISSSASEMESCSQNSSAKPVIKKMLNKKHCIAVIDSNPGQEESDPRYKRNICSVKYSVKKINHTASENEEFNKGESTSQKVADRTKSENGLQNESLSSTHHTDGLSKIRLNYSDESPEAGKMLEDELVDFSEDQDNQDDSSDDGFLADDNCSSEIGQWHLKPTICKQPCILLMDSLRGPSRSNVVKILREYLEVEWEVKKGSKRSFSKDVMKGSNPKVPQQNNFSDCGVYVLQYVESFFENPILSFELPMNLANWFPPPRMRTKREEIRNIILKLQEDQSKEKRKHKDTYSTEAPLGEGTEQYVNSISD

[2] = biological target: T2, Sentrin-specific protease 8 (Homo sapiens, UniProt Q96LD8); format: functional;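 further: luminescence read-out of SENP8 inhibition, dose-response confirmation following an ultra-high-throughput screen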
T2 sequence (Q96LD8 whole entry): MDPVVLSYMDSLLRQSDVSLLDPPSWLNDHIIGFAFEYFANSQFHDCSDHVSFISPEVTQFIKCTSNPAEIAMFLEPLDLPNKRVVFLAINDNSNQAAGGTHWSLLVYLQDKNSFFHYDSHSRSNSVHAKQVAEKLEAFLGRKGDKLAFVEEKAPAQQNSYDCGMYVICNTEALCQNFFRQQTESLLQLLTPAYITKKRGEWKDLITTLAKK

[3] = biological target: T3, Apoptotic protease-activating factor 1 (Homo sapiens, UniProt O14727); format: functional
T3 sequence (O14727 whole entry): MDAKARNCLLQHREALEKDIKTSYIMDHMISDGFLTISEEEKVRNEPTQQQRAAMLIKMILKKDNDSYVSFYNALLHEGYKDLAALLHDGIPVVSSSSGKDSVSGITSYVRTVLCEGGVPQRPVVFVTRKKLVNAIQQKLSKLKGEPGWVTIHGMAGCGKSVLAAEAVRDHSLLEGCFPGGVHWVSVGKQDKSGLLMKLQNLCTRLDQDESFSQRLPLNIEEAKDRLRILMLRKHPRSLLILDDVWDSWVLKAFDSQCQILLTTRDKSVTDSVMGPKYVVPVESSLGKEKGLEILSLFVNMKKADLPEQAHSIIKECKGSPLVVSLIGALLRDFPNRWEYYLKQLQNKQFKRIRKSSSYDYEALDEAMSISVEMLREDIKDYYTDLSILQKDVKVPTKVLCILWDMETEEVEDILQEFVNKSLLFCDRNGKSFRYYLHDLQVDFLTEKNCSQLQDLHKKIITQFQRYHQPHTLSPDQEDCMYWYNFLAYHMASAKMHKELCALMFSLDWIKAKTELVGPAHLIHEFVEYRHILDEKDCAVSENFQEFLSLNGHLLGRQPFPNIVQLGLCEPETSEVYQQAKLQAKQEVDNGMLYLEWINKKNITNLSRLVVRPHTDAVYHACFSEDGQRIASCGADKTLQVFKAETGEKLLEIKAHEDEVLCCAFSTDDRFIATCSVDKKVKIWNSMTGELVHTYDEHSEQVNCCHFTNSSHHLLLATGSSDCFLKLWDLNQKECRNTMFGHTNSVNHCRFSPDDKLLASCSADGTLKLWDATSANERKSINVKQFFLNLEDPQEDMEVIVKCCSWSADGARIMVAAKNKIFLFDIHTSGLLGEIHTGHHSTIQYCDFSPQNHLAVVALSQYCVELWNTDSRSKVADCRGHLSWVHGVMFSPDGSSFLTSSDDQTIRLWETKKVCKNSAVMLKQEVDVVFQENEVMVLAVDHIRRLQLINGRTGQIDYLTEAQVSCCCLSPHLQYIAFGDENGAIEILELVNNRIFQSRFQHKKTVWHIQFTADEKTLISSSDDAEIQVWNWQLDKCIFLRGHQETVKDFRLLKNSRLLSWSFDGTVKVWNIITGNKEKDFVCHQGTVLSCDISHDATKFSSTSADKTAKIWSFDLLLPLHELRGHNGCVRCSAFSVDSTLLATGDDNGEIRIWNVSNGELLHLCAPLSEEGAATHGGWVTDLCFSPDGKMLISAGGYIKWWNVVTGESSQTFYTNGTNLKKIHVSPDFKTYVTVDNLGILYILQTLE

Streptococcus = assay: Group A Streptococcus viability loss, dose response, counter-screen for streptokinase expression inhibitor project, luminescence, BacTiterGlo (AID 1915); format: functional, organism-based;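 further: potency for reduction of bacterial viability or growth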
[4] = biological target: Tyrosine-protein kinase JAK3 (Homo sapiens, UniProt P52333); format: functional
Sequence of Tyrosine-protein kinase JAK3 (P52333 whole entry): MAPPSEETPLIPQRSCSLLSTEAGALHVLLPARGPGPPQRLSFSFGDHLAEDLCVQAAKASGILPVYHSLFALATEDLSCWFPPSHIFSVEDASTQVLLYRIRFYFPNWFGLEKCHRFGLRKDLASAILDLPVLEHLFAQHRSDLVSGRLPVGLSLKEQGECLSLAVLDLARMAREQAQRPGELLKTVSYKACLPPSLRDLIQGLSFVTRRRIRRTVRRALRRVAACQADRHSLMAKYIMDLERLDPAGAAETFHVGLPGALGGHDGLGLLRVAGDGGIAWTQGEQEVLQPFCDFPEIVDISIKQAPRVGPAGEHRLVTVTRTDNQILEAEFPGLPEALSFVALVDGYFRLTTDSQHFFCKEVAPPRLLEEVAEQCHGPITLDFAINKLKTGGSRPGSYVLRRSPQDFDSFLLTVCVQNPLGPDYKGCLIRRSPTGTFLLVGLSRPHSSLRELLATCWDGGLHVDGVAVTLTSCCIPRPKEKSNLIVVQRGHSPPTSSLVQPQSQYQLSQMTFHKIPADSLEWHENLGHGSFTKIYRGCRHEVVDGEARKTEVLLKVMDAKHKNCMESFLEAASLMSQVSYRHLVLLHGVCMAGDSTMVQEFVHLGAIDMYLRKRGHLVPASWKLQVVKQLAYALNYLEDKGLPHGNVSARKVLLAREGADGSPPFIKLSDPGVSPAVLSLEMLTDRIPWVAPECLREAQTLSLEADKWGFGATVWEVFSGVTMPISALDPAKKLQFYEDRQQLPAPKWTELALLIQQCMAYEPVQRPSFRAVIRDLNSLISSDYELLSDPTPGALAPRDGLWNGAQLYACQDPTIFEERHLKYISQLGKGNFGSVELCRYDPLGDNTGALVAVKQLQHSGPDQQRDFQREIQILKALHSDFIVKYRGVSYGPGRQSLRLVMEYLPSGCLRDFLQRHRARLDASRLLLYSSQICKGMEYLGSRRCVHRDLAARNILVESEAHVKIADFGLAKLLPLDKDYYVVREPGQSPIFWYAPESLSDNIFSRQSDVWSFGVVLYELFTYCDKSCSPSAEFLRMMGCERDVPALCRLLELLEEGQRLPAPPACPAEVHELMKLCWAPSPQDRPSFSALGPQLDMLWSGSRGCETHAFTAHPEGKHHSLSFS

[5] = biological target: High affinity nerve growth factor receptor (Homo sapiens, UniProt P04629); format: functional;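 further: NTRK1 tested as one member of a kinome-wide profiling panel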
[6] = biological target: Mitogen-activated protein kinase kinase kinase kinase 2 (Homo sapiens, UniProt Q12851); format: functional;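 further: measured as one member of a kinome-wide kinase panel, with MAP4K2 as the panel entry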
Sequence of Mitogen-activated protein kinase kinase kinase kinase 2 (Q12851 whole entry): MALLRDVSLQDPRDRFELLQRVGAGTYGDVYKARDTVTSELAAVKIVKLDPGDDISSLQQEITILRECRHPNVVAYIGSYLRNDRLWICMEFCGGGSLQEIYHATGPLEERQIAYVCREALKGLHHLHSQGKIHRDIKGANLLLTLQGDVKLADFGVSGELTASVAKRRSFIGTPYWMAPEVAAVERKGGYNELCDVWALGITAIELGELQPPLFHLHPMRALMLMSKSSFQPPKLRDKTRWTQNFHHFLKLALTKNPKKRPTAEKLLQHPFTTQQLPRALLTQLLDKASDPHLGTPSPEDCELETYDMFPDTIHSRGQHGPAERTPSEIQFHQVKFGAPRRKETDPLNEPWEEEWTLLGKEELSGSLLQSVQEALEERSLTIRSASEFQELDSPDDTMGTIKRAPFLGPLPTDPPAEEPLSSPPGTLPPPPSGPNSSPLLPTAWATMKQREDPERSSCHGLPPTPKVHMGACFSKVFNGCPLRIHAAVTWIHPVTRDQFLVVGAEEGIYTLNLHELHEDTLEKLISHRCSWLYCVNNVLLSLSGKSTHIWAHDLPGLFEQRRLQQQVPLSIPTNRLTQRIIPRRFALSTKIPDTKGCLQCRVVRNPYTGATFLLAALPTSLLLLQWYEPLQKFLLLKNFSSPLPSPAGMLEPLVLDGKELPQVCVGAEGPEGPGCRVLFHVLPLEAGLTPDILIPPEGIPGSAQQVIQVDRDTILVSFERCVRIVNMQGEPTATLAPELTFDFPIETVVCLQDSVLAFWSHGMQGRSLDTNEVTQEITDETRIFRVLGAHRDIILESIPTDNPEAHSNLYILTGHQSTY

[7] = biological target: Serine/threonine-protein kinase Chk1 (Homo sapiens, UniProt O14757); format: functional;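 further: measured as one member of a kinome-wide kinase profiling panel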
Sequence of Serine/threonine-protein kinase Chk1 (O14757 whole entry): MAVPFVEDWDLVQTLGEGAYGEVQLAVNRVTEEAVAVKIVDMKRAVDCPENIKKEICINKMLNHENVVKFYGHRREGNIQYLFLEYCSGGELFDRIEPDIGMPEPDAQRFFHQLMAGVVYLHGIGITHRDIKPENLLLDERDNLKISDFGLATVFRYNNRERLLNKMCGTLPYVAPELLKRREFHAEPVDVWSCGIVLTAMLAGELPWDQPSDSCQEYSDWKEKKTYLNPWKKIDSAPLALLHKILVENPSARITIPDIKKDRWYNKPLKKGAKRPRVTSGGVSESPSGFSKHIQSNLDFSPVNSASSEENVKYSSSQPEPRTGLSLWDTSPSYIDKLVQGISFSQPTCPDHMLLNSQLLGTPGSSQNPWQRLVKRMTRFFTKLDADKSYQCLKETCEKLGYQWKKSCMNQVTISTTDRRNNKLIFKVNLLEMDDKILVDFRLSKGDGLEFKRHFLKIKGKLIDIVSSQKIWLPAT

Focal adhesion kinase 1 = Focal adhesion kinase 1 (Homo sapiens, UniProt Q05397); format: functional;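 further: measured as one member of a kinome panel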
[8] = biological target: Leucine-rich repeat serine/threonine-protein kinase 2 (Homo sapiens, UniProt Q5S007); format: functional;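 further: value from a broad kinome-wide panel profiling study in which LRRK2 was one of the kinases tested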
Sequence of Leucine-rich repeat serine/threonine-protein kinase 2 (Q5S007 whole entry): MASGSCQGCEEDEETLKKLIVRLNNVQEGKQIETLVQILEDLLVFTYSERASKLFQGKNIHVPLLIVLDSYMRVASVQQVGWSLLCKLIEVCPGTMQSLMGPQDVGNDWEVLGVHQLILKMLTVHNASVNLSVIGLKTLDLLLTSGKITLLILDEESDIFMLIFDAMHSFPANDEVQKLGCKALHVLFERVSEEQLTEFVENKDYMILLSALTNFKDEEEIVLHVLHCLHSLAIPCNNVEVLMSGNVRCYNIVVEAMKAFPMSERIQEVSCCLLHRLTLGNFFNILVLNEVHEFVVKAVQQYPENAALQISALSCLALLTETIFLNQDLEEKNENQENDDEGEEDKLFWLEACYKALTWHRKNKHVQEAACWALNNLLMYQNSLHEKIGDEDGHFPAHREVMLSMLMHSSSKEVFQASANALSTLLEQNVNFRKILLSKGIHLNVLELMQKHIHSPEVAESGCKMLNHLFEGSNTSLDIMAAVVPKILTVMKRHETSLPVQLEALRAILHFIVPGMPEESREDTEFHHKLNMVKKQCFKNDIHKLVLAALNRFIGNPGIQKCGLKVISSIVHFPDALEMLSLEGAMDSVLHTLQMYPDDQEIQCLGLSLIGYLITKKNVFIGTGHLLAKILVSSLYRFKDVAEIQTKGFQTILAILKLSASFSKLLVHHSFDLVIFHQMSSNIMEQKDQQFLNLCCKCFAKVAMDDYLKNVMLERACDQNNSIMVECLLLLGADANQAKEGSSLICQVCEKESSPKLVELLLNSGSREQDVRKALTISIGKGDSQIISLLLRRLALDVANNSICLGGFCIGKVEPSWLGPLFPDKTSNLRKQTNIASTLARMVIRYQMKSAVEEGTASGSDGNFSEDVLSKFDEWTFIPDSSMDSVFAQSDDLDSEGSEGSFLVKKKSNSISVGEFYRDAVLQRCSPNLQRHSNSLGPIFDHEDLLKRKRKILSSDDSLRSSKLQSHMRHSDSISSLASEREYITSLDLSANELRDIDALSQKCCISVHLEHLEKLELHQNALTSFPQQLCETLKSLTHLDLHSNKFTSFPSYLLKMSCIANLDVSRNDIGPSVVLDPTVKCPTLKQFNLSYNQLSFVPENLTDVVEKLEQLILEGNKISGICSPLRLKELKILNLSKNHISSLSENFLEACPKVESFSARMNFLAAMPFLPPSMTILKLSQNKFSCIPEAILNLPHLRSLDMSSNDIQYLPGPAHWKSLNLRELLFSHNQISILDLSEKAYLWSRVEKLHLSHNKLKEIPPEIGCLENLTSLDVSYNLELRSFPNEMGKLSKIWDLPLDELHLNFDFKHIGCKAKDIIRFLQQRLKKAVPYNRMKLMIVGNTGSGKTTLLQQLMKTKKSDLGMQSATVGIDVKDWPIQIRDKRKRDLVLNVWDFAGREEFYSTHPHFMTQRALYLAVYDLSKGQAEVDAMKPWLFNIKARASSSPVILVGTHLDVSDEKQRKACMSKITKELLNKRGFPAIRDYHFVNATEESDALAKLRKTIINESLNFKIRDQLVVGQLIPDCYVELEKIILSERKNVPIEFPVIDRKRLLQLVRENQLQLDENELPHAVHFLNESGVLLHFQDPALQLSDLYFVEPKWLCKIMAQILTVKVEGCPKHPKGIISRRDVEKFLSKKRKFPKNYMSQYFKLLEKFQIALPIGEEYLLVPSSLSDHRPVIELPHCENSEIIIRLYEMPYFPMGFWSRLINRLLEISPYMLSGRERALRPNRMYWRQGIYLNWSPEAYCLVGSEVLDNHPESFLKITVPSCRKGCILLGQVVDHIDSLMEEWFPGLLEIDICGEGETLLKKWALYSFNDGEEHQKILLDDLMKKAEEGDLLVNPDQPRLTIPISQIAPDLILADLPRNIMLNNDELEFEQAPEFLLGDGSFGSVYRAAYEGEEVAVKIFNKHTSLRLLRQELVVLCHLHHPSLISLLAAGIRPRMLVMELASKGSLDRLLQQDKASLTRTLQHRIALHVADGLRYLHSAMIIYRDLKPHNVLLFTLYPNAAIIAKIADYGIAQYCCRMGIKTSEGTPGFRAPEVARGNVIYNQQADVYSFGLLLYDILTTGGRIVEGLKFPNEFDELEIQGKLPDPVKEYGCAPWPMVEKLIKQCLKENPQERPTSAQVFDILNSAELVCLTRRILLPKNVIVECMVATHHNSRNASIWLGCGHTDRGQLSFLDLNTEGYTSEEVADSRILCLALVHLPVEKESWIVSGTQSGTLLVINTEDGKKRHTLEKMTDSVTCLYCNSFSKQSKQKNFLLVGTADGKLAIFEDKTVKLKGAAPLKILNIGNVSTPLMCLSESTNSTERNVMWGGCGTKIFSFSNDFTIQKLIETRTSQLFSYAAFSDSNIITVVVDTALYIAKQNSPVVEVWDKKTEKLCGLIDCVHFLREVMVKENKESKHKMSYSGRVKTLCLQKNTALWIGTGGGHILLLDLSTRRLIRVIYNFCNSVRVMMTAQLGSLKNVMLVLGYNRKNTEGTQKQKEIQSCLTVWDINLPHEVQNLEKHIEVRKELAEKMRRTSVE

[9] = biological target: Dual specificity protein kinase CLK4 (Homo sapiens, UniProt Q9HAZ1); format: functional

## CCCNC(=O)c1c(N)n(CC2CCCO2)c2nc3ccccc3nc12 (stereo unspecified)
[1]
  IC50: 2.01 µM (active)
[2]
  IC50: 3.35 µM (active)
[3]
  IC50: 58.6 µM (active)

## O=C1/C(=C\c2cccc(O)c2O)SC(=S)N1Cc1ccccc1
Streptococcus
  EC50: 6.24 µM (active)

## CC(C)(C)c1cc[n+](C2=C([N-]S(=O)(=O)c3cccs3)C(=O)c3ccccc3C2=O)cc1
Streptococcus
  EC50: 7.2 µM (active)
[1]
  IC50: 5.53 µM (active)
[2]
  IC50: 9.58 µM (active)

## COc1c(-c2nc3ccccc3[nH]2)c(O)cc2oc(C)cc(=O)c12
[4]
  Ki: 3.98 µM (active)
[5]
  Ki: 398 nM (active)
[6]
  Ki: 0.501 µM (active)
[7]
  Ki: 39.8 nM (active)
Focal adhesion kinase 1
  Ki: 2.51 µM (active)
[8]
  Ki: 794 nM (active)
[9]
  Ki: 79.4 nM (active)

## COC(=O)c1c(N)nc2ccccn12
[6]
  Ki: 50.1 µM (active)
Focal adhesion kinase 1
  Ki: 79.4 µM (active)
[8]
  Ki: 2510 nM (active)
[9]
  Ki: 3980 nM (active)

## CCc1ccc(S(=O)(=O)/N=C2\C=C(Nc3ccc(O)cc3)C(=O)c3ccccc32)cc1
Streptococcus
  EC50: 2.16 µM (active)
[3]
  IC50: 1.97 µM (active)

## Cc1cc([N+](=O)[O-])cc(/C=N\NC(=O)C2COc3ccccc3O2)c1O (stereo unspecified)
Streptococcus
  EC50: 2.79 µM (active)
[1]
  IC50: 28.4 µM (active)
[2]
  IC50: 42.1 µM (active)

## Cc1ccc(F)c(NC(=O)Nc2ccc(-c3cccc4[nH]nc(N)c34)cc2)c1 [LINIFANIB]
[4]
  Ki: > 5.01 µM (inactive)
[5]
  Ki: > 3160 nM (inactive)
[7]
  Ki: > 3160 nM (inactive)
